Legend:
Assay in all cases: MIC of clinical antifungals, CLSI M38-A2 broth microdilution
Type in all cases: cell-based
Candida krusei ATCC 6258 = details: Pichia kudriavzevii; for MIC50 / MIC80: ATCC6258, RPMI-1640; for MIC: ATCC6258, RPMI-1640, read-out: MIC100
Description: (§1) Two Candida spp. strains (C. krusei ATCC6258 & C. parapsilosis ATCC22019) and Exophiala jeanselmei reference strain NCPF2377 were also tested. These acted as quality control strains. Flat-bottomed Nunc Plates were prepared containing a serial doubling dilution of antifungals at 2× final concentration. […] These were incubated at 35° C. and read at 24 h and 48 h (Candida spp.) or 120 h (Exophiala spp.) on a BioTek plate reader at 530 nm. • 7. Culture of Candida spp. grown on Sabouraud dextrose agar slope overnight at 30° C. • 8. Exophiala cultures grown on potato dextrose agar slope for 6 days at 35° C. • 9. Cultures were removed from incubator and 2 ml sterile 0.15M NaCl was added to the overnight culture and spore and hyphal suspensions were harvested from the surface of the agar and transferred to a sterile plastic bijou tube. • a. Exophiala spp. cultures were allowed to rest for up to 10 min, allowing hyphae to settle to the bottom. The top layers of spores were transferred to a sterile plastic bijou tube. • 10. […] This is continued to A12 where 100 μl is removed and discarded. • f. This dilution series was repeated in rows B-D for the remaining 3 cultures • g. 0.5 McFarland Standard added to wells E1-E3 • h. Plate read at OD530 on BioTek. • i. Concentration of cells required will be the one that is the equivalent to the 0.5 McFarland Standard • 11. […] • 7. The highest final concentration on the plate will be as described in layouts at the end of the protocol. […] Wells A1-A3 and A7-A9 are prepared by the addition of 200 μl highest concentration of compound to the wells. • 10. All other wells contain 100 μl sterile dH2O. • 11. Serial dilutions are carried out from A1-A3 to B1-B3 whereby 100 μl is removed from A1-A3 and placed into B1-B3 and mixed well by pipetting. Then take 100 μl B1-B3 and place in C1-C3 and mix well. Take 100 μl from C1-C3 and add to D1-D3 and mix well. […] At H1-[…] μl is removed and added to A4-A6. The dilution series is carried down the plate in the same manner to wells G4-G6 where a final 100 μl is removed and discarded. H4-H6 contain water alone and will be untreated controls. • 12. The same procedure is repeated for the wells in columns A7-A9 and A10-A12. See plate layout at bottom of page. Inoculating Plates with Candida spp./Exophiala spp. • 5. […] Plates are read in the BioTek at OD530 nm. • 7. Plates are then placed in a plastic box which contains either a Petri dish of water. The box is sealed and incubated at 35° C. (Exophiala spp.) or 30° C. (Candida spp.). The presence of the water in the dish or on the tissue provides and environment of relatively high humidity. • 8. The OD530 of the Candida spp. plates are read after 24 h and 48 h, while the slower growing Exophiala spp. plates are read after 96 h and 120 h. • 9. Raw BioTek data is transformed using Gen5 software and represented graphically using GraphPad Prism 4 software and MICs determined.

[1] = system: Candida parapsilosis ATCC 22019; details: Lodderomyces parapsilosis; for MIC50 / MIC80: ATCC22019, RPMI-1640; for MIC: ATCC22019, RPMI-1640, read-out: MIC100
Description: as §1

[2] = system: Exophiala dermatitidis CA01; details: RPMI-1640, 35° C.; for MIC: read-out: MIC100
Description: as §1

[3] = system: Exophiala jeanselmei NCPF 2377; details: NCPF2377, RPMI-1640, 35° C.; for MIC: read-out: MIC100
Description: as §1

Row | MIC50 (Candida krusei ATCC 6258) | MIC80 (Candida krusei ATCC 6258) | MIC (Candida krusei ATCC 6258) | MIC50 [1] | MIC80 [1] | MIC [1] | MIC50 [2] | MIC80 [2] | MIC [2] | MIC50 [3] | MIC80 [3] | MIC [3] | Structure (SMILES)
1 | 0.004 µg/mL | 0.125 µg/mL | 0.25 µg/mL | 0.008 µg/mL | 0.016 µg/mL | 0.125 µg/mL | 2 µg/mL | > 32 µg/mL | > 32 µg/mL | 0.125 µg/mL | 0.25 µg/mL | 0.25 µg/mL | CCC(C)n1ncn(-c2ccc(N3CCN(c4ccc(OCC5COC(Cn6cncn6)(c6ccc(Cl)cc6Cl)O5)cc4)CC3)cc2)c1=O (stereo not drawn) [Itraconazole]
2 | 31.2 µg/mL | 62.5 µg/mL | 62.5 µg/mL | 0.5 µg/mL | 1 µg/mL | 3.9 µg/mL | 250 µg/mL | 500 µg/mL | 500 µg/mL | 250 µg/mL | 500 µg/mL | 1000 µg/mL | OC(Cn1cncn1)(Cn1cncn1)c1ccc(F)cc1F [Fluconazole]
3 | 0.5 µg/mL | 1 µg/mL | 1 µg/mL | 1 µg/mL | 2 µg/mL | 64 µg/mL | 16 µg/mL | 32 µg/mL | 32 µg/mL | 0.125 µg/mL | 64 µg/mL | > 64 µg/mL | CC[C@H](C)C[C@H](C)CCCCCCCCC(=O)N[C@H]1C[C@@H](O)[C@@H](NCCN)NC(=O)[C@@H]2[C@@H](O)CCN2C(=O)[C@H]([C@H](O)CCN)NC(=O)[C@H]([C@H](O)[C@@H](O)c2ccc(O)cc2)NC(=O)[C@@H]2C[C@@H](O)CN2C(=O)[C@H]([C@@H](C)O)NC1=O [Caspofungin]
